We go through 29 molecules from patent publication US11964953B2, “Substituted aminothiazoles as DGKzeta inhibitors for immune activation” (Bayer Aktiengesellschaft, priority 2020, dated 2024).

As a reminder, the IC50 is the point on the concentration scale where inhibition reaches its midpoint.

human DGKζ, sequence (Q13574 other isoform, or with tags, fused parts or gaps): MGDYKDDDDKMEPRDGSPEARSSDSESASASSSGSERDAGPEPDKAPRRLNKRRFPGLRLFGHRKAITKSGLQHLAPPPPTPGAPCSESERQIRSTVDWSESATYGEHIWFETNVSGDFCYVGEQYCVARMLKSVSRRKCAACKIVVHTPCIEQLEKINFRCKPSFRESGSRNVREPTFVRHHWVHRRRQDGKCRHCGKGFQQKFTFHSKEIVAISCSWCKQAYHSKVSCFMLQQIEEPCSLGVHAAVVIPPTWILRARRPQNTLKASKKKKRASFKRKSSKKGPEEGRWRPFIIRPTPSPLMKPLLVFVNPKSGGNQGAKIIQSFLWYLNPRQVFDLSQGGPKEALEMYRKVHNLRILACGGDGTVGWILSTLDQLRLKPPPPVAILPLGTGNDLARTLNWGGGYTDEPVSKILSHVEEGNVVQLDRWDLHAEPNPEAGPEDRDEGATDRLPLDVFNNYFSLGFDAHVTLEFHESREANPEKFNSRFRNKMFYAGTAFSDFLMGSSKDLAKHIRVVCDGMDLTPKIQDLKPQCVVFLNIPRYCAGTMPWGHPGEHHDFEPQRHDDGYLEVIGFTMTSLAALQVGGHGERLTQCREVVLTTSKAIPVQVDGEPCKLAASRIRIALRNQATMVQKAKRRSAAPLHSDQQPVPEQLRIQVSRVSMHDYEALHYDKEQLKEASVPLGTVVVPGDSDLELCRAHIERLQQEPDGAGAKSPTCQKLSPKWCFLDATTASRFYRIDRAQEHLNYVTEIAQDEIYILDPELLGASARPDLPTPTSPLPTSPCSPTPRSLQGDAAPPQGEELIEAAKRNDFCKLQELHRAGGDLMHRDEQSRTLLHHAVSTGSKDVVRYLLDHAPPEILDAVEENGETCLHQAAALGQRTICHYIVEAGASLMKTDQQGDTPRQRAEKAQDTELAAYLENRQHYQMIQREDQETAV

The assay addresses human DGKζ (Homo sapiens (Human), UniProt Q13574). Kind of assay: Human DGKζ kinase activity inhibition assay (ADP-Glo). The note with it: in vitro human DGKζ kinase activity inhibition assay; read-out: IC50. The assay is classed as biochemical. As for the experimental part:
Human DGKζ Kinase Activity Inhibition Assay. Human diacylglycerol kinase zeta (DGKζ) inhibitory activity of compounds of the present invention was quantified employing the human DGKζ kinase activity assay as described in the following paragraphs. In essence, the enzyme activity was measured by quantification of the adenosine-di-phosphate (ADP) generated as a co-product of the enzyme reaction via the “ADP-Glo™ Kinase Assay” kit from the company Promega. This detection system works as follows: In a first step the adenosine-tri-phosphate (ATP) not consumed in the kinase reaction is quantitatively converted to cyclic adenosine-mono-phosphate (cAMP) employing an adenylate cyclase (“ADP-Glo-reagent”), then the adenylate cyclase is stopped and the ADP generated in the kinase reaction is converted to ATP, which subsequently generates in a luciferase-based reaction a glow-luminescence signal (“Kinase Detection Reagent”). C-terminally FLAG-tagged, recombinant full-length human DGKζ (in house expressed in baculovirus infected insect cells, purified using anti-Flag pulldown and size exclusion chromatography) was used as enzyme. As an alternative, commercially available enzyme by Carnabio can be used. […] Subsequently, 22.55 volumes of a 510 mM solution of octyl-β-D-glucopyranoside (Sigma-Aldrich, Cat. #O8001-10G) in 50 mM MOPS buffer (pH 7.4) were added, and the mixture was sonicated in an ultrasonic bath for 20 s. […] Viewlux™ from Perkin-Elmer). The amount of emitted light was taken as a measure for the amount of ADP generated and thereby for the activity of the DGKζ.
Consider `CC(C(N)=O)N(c1ccc(Cl)nc1)c1nc(N)c(C(=O)c2ccccc2)s1` (racemic) [Example 232, rac-2-[(4-amino-5-benzoyl-thiazol-2-yl)-(6-chloro-3-pyridyl)amino]propanamide], for which the IC50 turned out to be 112 nM.
The result for `COc1ccc(C(=O)c2sc(N(c3ccc(Cl)cc3)C(C)C(N)=O)nc2N)cc1` (single isomer, unassigned) [Example 58.2, 2-(N-[4-amino-5-(4-methoxybenzoyl)thiazol-2-yl]-4-chloro-anilino)propanamide] reads 1050 nM; that for `CC(C(N)=O)N(c1ccc(OC(F)(F)F)c(F)c1)c1nc(N)c(C(=O)c2ccc(OC(F)F)cc2)s1` (racemic) [Example 219, rac-2-[N-[4-amino-5-[4-(difluoromethoxy)benzoyl]thiazol-2-yl]-3-fluoro-4-(trifluoromethoxy)anilino]propanamide], 13 nM; that for `CC(Oc1ccc(C(=O)c2sc(N(c3ccccc3)C(C)C(N)=O)nc2N)cc1)C(N)=O` (single isomer, unassigned) [Example 45.3, 2-(N-[4-amino-5-[4-[2-amino-1-methyl-2-oxo-ethoxy]benzoyl]thiazol-2-yl]anilino)propanamide], 1050 nM.
For `CC(C(N)=O)N(c1ccc(F)cc1)c1nc(N)c(C(=O)c2ccc(OC(F)(F)F)cc2)s1` (single isomer, unassigned) [Example 40.1, 2-(N-[4-amino-5-[4-(trifluoromethoxy)benzoyl]thiazol-2-yl]-4-fluoro-anilino)propanamide], the IC50 was 792 nM.
The result for `CC(C(N)=O)N(c1ccc(Cl)c(F)c1)c1nc(N)c(C(=O)c2ccncc2)s1` (single isomer, unassigned) [Example 56.1, 2-(N-[4-amino-5-(pyridine-4-carbonyl)thiazol-2-yl]-4-chloro-3-fluoro-anilino)propanamide] reads 50.5 nM; that for `CC(C(N)=O)N(c1ccc(F)cc1)c1nc(N)c(C(=O)c2ccc(N(C)C)nc2)s1` (racemic) [Example 278, rac-2-(N-[4-amino-5-[6-(dimethylamino)pyridine-3-carbonyl]thiazol-2-yl]-4-fluoro-anilino)propanamide], 230 nM.
Take `CC(C(N)=O)N(c1ccc(F)cc1)c1nc(N)c(C(=O)c2ccc(OCC(=O)NCc3ccccc3Cl)cc2)s1` (racemic) [Example 120, rac-2-(N-[4-amino-5-[4-[2-[(2-chlorophenyl)methylamino]-2-oxo-ethoxy]benzoyl]thiazol-2-yl]-4-fluoro-anilino)propanamide]: the IC50 amounted to 16.7 nM.
The result for `CC(C(N)=O)N(c1ccc(F)cc1)c1nc(N)c(C(=O)c2ccc(C#N)cc2)s1` (single isomer, unassigned) [Example 33.1, 2-(N-[4-amino-5-(4-cyanobenzoyl)thiazol-2-yl]-4-fluoro-anilino)propanamide] reads 8610 nM.
In the case of `CC(C(N)=O)N(c1ccc(OC(F)F)c(Cl)c1)c1nc(N)c(C(=O)c2ccc(Cl)cc2)s1` (racemic) [Example 202, rac-2-[N-[4-amino-5-(4-chlorobenzoyl)thiazol-2-yl]-3-chloro-4-(difluoromethoxy)anilino]propanamide] it was 69 nM; in that of `CC(C(N)=O)N(c1ccc(F)c(F)c1)c1nc(N)c(C(=O)c2ccc(OC(F)F)nc2)s1` (single isomer, unassigned) [Example 163.2, 2-(N-[4-amino-5-[6-(difluoromethoxy)pyridine-3-carbonyl]thiazol-2-yl]-3,4-difluoro-anilino)propanamide], 1090 nM.
On to `CC(C(N)=O)N(c1ccc(F)cc1)c1nc(N)c(C(=O)c2ccccc2)s1` (single isomer, unassigned) [Example 61.1, 2-(N-(4-amino-5-benzoyl-thiazol-2-yl)-4-fluoro-anilino)propanamide], for which the IC50 came out at 5180 nM.
The result for `Cc1cc(NC(=O)COc2ccc(C(=O)c3sc(N(c4ccc(F)cc4)C(C)C(N)=O)nc3N)cc2)on1` (racemic) [Example 112, rac-2-(N-(4-amino-5-[4-[2-[(3-methylisoxazol-5-yl)amino]-2-oxo-ethoxy]benzoyl]thiazol-2-yl]-4-fluoro-anilino)propanamide] reads 300 nM.
`CCNC(=O)COc1ccc(C(=O)c2sc(N(c3ccc(F)cc3)C(C)C(N)=O)nc2N)cc1` (racemic) [Example 104, rac-2-(N-[4-amino-5-[4-[2-(ethylamino)-2-oxo-ethoxy]benzoyl]thiazol-2-yl]-4-fluoro-anilino)propanamide]: the IC50 is 234 nM.
In the case of `COc1ccc(C(=O)c2sc(N(c3ccc(F)c(Cl)c3)C(C)C(N)=O)nc2N)cc1` (racemic) [Example 161, rac-2-(N-[4-amino-5-(4-methoxybenzoyl)thiazol-2-yl]-3-chloro-4-fluoro-anilino)propanamide] it was 15 nM; in that of `CC(C(N)=O)N(c1ccc(F)c(OC(F)(F)F)c1)c1nc(N)c(C(=O)c2ccccc2)s1` (racemic) [Example 235, rac-2-[N-(4-amino-5-benzoyl-thiazol-2-yl)-4-fluoro-3-(trifluoromethoxy)anilino]propanamide], 542 nM; in that of `CC(C(N)=O)N(c1ccc(OC(F)F)c(F)c1)c1nc(N)c(C(=O)c2ccc(Cl)cc2)s1` (racemic) [Example 206, rac-2-[N-[4-amino-5-(4-chlorobenzoyl)thiazol-2-yl]-4-(difluoromethoxy)-3-fluoro-anilino]propanamide], 48 nM.
The result for `Cc1cccc(N(c2nc(N)c(C(=O)c3ccccc3)s2)C(C)C(N)=O)c1` (racemic) [Example 76, rac-2-(N-(4-amino-5-benzoyl-thiazol-2-yl)-3-methyl-anilino)propanamide] reads 252 nM; that for `CC(C(N)=O)N(c1ccc(OC(F)F)c(F)c1)c1nc(N)c(C(=O)c2ccc(OC(F)F)nc2)s1` (racemic) [Example 210, rac-2-[N-[4-amino-5-[6-(difluoromethoxy)pyridine-3-carbonyl]thiazol-2-yl]-4-(difluoromethoxy)-3-fluoro-anilino]propanamide], 69 nM; that for `Cc1ccccc1N(C)C(=O)COc1ccc(C(=O)c2sc(N(c3ccc(F)cc3)C(C)C(N)=O)nc2N)cc1` (racemic) [Example 138, rac-2-(N-[4-amino-5-[4-[2-(N,2-dimethylanilino)-2-oxo-ethoxy]benzoyl]thiazol-2-yl]-4-fluoro-anilino)propanamide], 61.6 nM.
In the case of `CC(C(N)=O)N(c1ccc(C#N)cc1)c1nc(N)c(C(=O)c2ccccc2)s1` (racemic) [Example 9, rac-2-(N-(4-amino-5-benzoyl-thiazol-2-yl)-4-cyano-anilino)propanamide] it was 536 nM; in that of `CC(C(N)=O)N(c1ccc(F)cc1)c1nc(N)c(C(=O)c2ccc(N3CCC(C)(C)CC3)nc2)s1` (racemic) [Example 279, rac-2-(N-[4-amino-5-[6-(4,4-dimethyl-1-piperidyl)pyridine-3-carbonyl]thiazol-2-yl]-4-fluoro-anilino)propanamide], 48 nM; in that of `CC(C(N)=O)N(c1ccc(F)cc1)c1nc(N)c(C(=O)c2cccc(F)c2)s1` (racemic) [Example 16, rac-2-(N-[4-amino-5-(3-fluorobenzoyl)thiazol-2-yl]-4-fluoro-anilino)propanamide], 283 nM.
For the molecule `CC(C(N)=O)N(c1ccc(F)cc1)c1nc(N)c(C(=O)c2ccc(OCC(=O)N3CCOCC3)cc2)s1` (racemic) [Example 88, rac-2-(N-[4-amino-5-[4-(2-morpholino-2-oxo-ethoxy)benzoyl]thiazol-2-yl]-4-fluoro-anilino)propanamide], the half-maximal inhibitory concentration (IC50) came out at 667 nM.
In the case of `CC(C(N)=O)N(c1ccc(F)cc1)c1nc(N)c(C(=O)c2ccc(N3CC4CC4C3)nc2)s1` (racemic) [Example 282, rac-2-(N-[4-amino-5-[6-(3-azabicyclo[3.1.0]hexan-3-yl)pyridine-3-carbonyl]thiazol-2-yl]-4-fluoro-anilino)propanamide], the half-inhibitory concentration (IC50) came out at 53 nM.
In the case of `CC(C(N)=O)N(c1nc(N)c(C(=O)c2ccccc2)s1)c1ccccc1F` (racemic) [Example 75, rac-2-(N-(4-amino-5-benzoyl-thiazol-2-yl)-2-fluoro-anilino)propanamide] it was 419 nM; in that of `COc1ccc(C(=O)c2sc(N(c3ccc(F)c(F)c3)C(C)C(N)=O)nc2N)cn1` (single isomer, unassigned) [Example 52.1, 2-(N-[4-amino-5-(6-methoxypyridine-3-carbonyl)thiazol-2-yl]-3,4-difluoro-anilino)propanamide], 72.7 nM.
Take `CCOC(=O)COc1ccc(C(=O)c2sc(N(c3ccc(F)cc3)C(C)C(N)=O)nc2N)cc1` (racemic) [Example 81, rac-ethyl 2-[4-[4-amino-2-(4-fluoro-N-[2-amino-1-methyl-2-oxo-ethyl]anilino)thiazole-5-carbonyl]phenoxy]acetate]: the IC50 came to 8.71 nM.
On to `CCOC(=O)COc1ccc(C(=O)c2sc(N(c3ccc(F)cc3)C(C)C(N)=O)nc2N)cc1` (single isomer, unassigned; enantiomer 1) [Example 81.1, ethyl 2-[4-[4-amino-2-(4-fluoro-N-[2-amino-1-methyl-2-oxo-ethyl]anilino)thiazole-5-carbonyl]phenoxy]acetate (enantiomer 1)], for which the IC50 was 1020 nM.
